Reference: patent US4418205A, “16-Amino-18,19,20-trinor-prostaglandin derivatives, and acid addition salts” (priority 1980, dated 1983)
Read-outs that look alike come from different tables or passages of the source.

What was measured:
[1] = system: mice being in the 16th to 17th day of their pregnancy; assay: Abortion induction in mice in the 3rd trimestre of pregnancy, subcutaneous; format: in vivo; details: pregnant mice; for ED50: Mus musculus, sc, 16th to 17th day, subcutaneous, abortions within 48 hours, obtained by interpolation, read-out: Approx. ED50 (dose inducing abortion in 50 percent of the animals)
Description: According to one of the test methods /M. J. K. Harper and R. C. Skarnes: Advances in Biosciences 9, 789 /1973// the test material was administered subcutaneously to mice being in the 16th to 17th day of their pregnancy /3rd trimestre/, then the number of abortions ensuing with 48 hours was registered, as well as the live and dead fetuses following the removal of the uterus, and the scars on the placenta.
(§1) Applying the above methods the dose-response relationship was established at PGF2α, and its methyl ester, as well as the compounds of general formula I of the present invention. The number of animals was 5 per dose.

[2] = system: hamsters being in the 4th, 5th, and 6th day of pregnancy; assay: Interruption of early pregnancy in hamsters, subcutaneous; format: in vivo, hamster; details: for ED50: Mesocricetus auratus, sc, hamster, 1st trimestre, treated subcutaneously day 4, 5, 6, autopsy day 8, read-out: Approx. ED50
Description: (§2) Here hamsters being in the 4th, 5th, and 6th day of pregnancy were treated subcutaneously, and following autopsy on the 8th day, the number of intrauterine embryonal implantations, as well as the condition of the ovaria were investigated /N. S. Crossley: Prostaglandins 10, 5 /1975//. Similarly rats were treated on the 4th, 5th, 6th and 7th day of pregnancy, and killed on the 9th day, and the interruption of pregnancy registered at the autopsy /W. Skuballa et al.: J. Med. Chem. […], 443 /1978//.
as §1
(§3) A similar increase in potency could be observed at the treatment of animals being in the 1st trimestre of their pregnancy.
The 50 fold increase in potency compared to that of PGF2α is especially worth mentioning in the case of hamsters, as this test is suitable for the sensitive detection of the abortive effect of a given compound if it has lutheolytic activity.

[3] = system: rats treated on the 4th, 5th, 6th and 7th day of pregnancy; assay: Interruption of early pregnancy in rats; format: in vivo; details: rat, 1st trimestre, treated day 4, 5, 6, 7, killed day 9; read-out: Approx. ED50
Description: as §2, §1, §3

pregnant mice = details: mouse, in vivo

| SMILES | ED50 [1] [mg/kg] | ED50 [2] [mg/kg] | ED50 [3] [mg/kg] | incidence of diarrhoea (pregnant mice; 10 mg/kg) | potency compared to PGF2α ([1]; from ED50 values) [fold] | potency compared to PGF2α methyl ester ([1]; from ED50 values) [fold] | increase in potency compared to that of PGF2α ([2]; hamsters) [fold] | induction of diarrhoea (pregnant mice; 3 mg/kg) | incidence of diarrhoea (pregnant mice; 3 mg/kg) |
| --- | --- | --- | --- | --- | --- | --- | --- | --- | --- |
| CCCCC[C@H](O)/C=C/[C@@H]1[C@@H](C/C=C\CCCC(=O)O)[C@@H](O)C[C@H]1O [PGF2α, reference compound] | ~16 | ~0.025 | ~1 | over 50% | – | – | – | – | – |
| COC(=O)CCC/C=C\C[C@@H]1[C@@H](/C=C/C(O)[C@@H](N)Cc2ccccc2)[C@H](O)C[C@@H]1O (single isomer, unassigned) [9α,11α,15/.xi./-Trihydroxy-16/S/-amino-17-phenyl-5-cis,13-trans-18,19,20-trinor-prostadienoic acid methyl ester] | ~1.2 | ~0.0005 | ~0.1 | – | 13 | 8 | 50 | failed to induce diarrhoea | – |
| CCCCC[C@H](O)/C=C/[C@@H]1[C@@H](C/C=C\CCCC(=O)OC)[C@@H](O)C[C@H]1O [PGF2α -methyl ester, reference compound] | ~10 | – | – | – | – | – | – | – | over 50% |
